In US20170088584A1, “USE OF […] DRUGS FOR OS[…] AND BONE REGENERATION” (UNIVERSIDAD NACIONAL AUTONOMA DE MEXICO, priority 2015, published 2017):
“Also recorded” adds a separate entry of the source.

Columns and labels:
[1] = test system: ovariectomized Wistar rats with osteoporosis; assay: bone microarchitecture by histology (Masson's trichrome) and μCT, ovariectomized osteoporotic rat model; format: in vivo, Wistar rats (Rattus norvegicus); conditions: 20-50 μg/kg i.p. daily 90 days; for μCT three-dimensional reconstruction of 5th lumbar vertebra / histology of femur epiphysis microarchitecture: 5 months after ovariectomy; for histology of femur epiphysis microarchitecture: Masson's trichrome; for histology of the body of the 5th lumbar vertebra: transverse and sagittal planes
Protocol: In FIGS. 5 and 6 histological sections of 5 μm thick and stained with Masson's Trichromic stain may be observed in which the microarchitecture of the epiphysis of the femur of the Wistar rats is analyzed in detail. Letter (A) of both figures corresponds to the group with no treatment which is the healthy control group. In the histological section stained with Masson's Trichromic stain, normal microarchitecture of the femoral epiphysis is observed with the cancellous bone and medullar spaces filled with bone marrow and bone occupying inter-medullar spaces. The epiphyseal plate and articular cartilage are also observed. […] Treatment with the vehicle lasted 90 days. […] These spaces have variable sizes. Articular cartilage and epiphyseal plate are also noted. […] Microphotography showing the microarchitecture of the femur epiphysis of Wistar rats. […] Articular cartilage and epiphyseal plate are also observed.
In FIGS. 7 and 8, microphotographs of histological sections of 5 μm thick of the 5th lumbar vertebra in the transverse and sagittal plane stained with Masson's Trichromic stain. Panel (A) of FIGS. 7 and 8 corresponds to the body of the 5th lumbar vertebra in the transverse (a) and sagittal (a′) planes of normal Wistar rats where cortical bone, bone trabeculate and spaces filled with bone marrow may be observed. Panel (B) of FIGS. 7 and 8 corresponds to the body of the 5th lumbar vertebra in the transverse (b) and sagittal (b′) planes of osteoporotic Wistar rats treated with physiological saline solution where cortical bone and bone trabeculate are observed with lesser width than the one of healthy Wistar rats. Medullar spaces are also observed and they are filled with fatty tissue with larger areas than those found in healthy controls.
(§1) We used 48 female rats of the Wistar strain, 3 months of age, with a weight of 250±20 gr. The animals were acclimated for 14 days at an ambient temperature of 22° C. with a photoperiod of 12 hours and relative humidity of 50%; food and water were ad libitum. The rats were sedated with acepromazine maleate (Relax 0.5 g/100 ml) at a dose of 20 μg/Kg of weight and as general anesthetic, tiletamine and zolazepam were used at a concentration of 25 mg/kg of weight.
Anesthetic maintenance was performed with constant flow of isoflurane. Once the rats were anesthetized we proceeded to perform the bilateral ovariectomy procedure for what the anesthetized rat was placed in lateral decubitus and shaved from the last rib forming a rectangle of approximately 4×3 cm. This area is disinfected with an electrolyzed super oxidant solution with neutral pH (Veteribac). Then a linear incision of approximately 2 cm up was performed with a scalpel to reach the muscle and expose the abdominal cavity. With extreme care, the cervix was located and identified. The cervix was ligated exactly on its middle portion with 6/0 polyglycolic acid sutures and subsequently the ovaries were eliminated with a scalpel. It was sutured by planes (abdominal muscles and skin) with 4/0 polyglycolic acid sutures and finally, the surgical area was cleaned with hydrogen peroxide. The rats were maintained in vivarium conditions during 5 months with 12 hours of light and 12 hours of darkness, at an average temperature of 22° C. with food and water ad libitum. […] Once this period concluded, 32 ovariectomized rats were divided into 4 groups of 8 rats each. […] The control group of osteoporotic rats […] was treated with physiological saline solution (pH 7.4) for 90 days. The healthy control group (16) rats received no treatment at all. Blood was obtained from all groups at the beginning and end of treatment (90 days). The 5th dorsal vertebra of the rats was analyzed by means of computed micro tomography (μCT) prior to euthanasia with CO2 on day 90 of treatment. The femur and 5th dorsal vertebrae were obtained, fixed in 10% paraformaldehyde and embedded in paraffin. […]

[2] = test system: ovariectomized Wistar rats with osteoporosis; assay: resistance to compression of the 5th lumbar vertebra, ovariectomized osteoporotic rat model; format: in vivo, Wistar rats (Rattus norvegicus); conditions: 20-50 μg/kg i.p. daily for 90 days, started 5 months after ovariectomy; end of treatment
Protocol: FIG. 12 corresponds to a graph showing the resistance to compression of the vertebral body of the 5th lumbar vertebra obtained from Wistar rats at the end of the 90-day experimental period, 5 months after ovariectomy. Resistance Tests were performed using an Inströn Universal Testing Machine (mod. 5567) in the body of the 5th lumbar vertebra compressed at a speed of 1 mm/min up to achieve sample fracture. The exerted force is expressed in N/mm^2. […].
as §1
Anesthetic maintenance was performed with constant flow of isoflurane. Once the rats were anesthetized we proceeded to perform the bilateral ovariectomy procedure for what the anesthetized rat was placed in lateral decubitus and shaved from the last rib forming a rectangle of approximately 4×3 cm. […] The 5th dorsal vertebra of the rats was analyzed by means of computed micro tomography (μCT) prior to euthanasia with CO2 on day 90 of treatment. […]

[3] = test system: critical-size calvarial defect in Wistar rats; assay: regeneration of critical-size calvarial defect with peptide in gelatin sponge scaffold; format: in vivo; conditions: 20-50 μg peptide per gelatin sponge (Gelfoam) disk, 9 mm defect, after 16 weeks
Excerpt: These peptides have been artificially synthesized and then combined with a three-dimensional scaffold made of gelatin (gelatin sponge), thus it was used for regeneration of critical size bone defects in an animal model: two groups of 14 male Wistar rats of approximately 250±20 grams of weight were used. Anesthesia of the rats was achieved through intraperitoneal injection of ketamine. The critical size defect was done by performing a 3 cm incision in the calvarial bone and then lifting a mucoperiostial flap. Subsequently, with a 9 mm trephine, a defect was created in the rat's calvarial bone. In the experimental group the formulation was introduced. It consisted of a 9 mm-diameter, porous, three-dimensional, gelatin-based (Gelfoam) disk containing the peptide at a concentration of 20-50 μg/disk. Previously, the dimensional scaffold (gelatin sponge) was incubated with a concentration of the corresponding peptide at 20-50 μg/disk of gelatin sponge and was vacuum dried. Control animals were treated only with a disk of gelatin sponge and a vehicle for re-suspension of the peptide (phosphate buffer pH 7.4) and another group remained without treatment. Blood supply is ensured at the surgical site. The operation site was sealed with Satin S-100, which consists primarily in gelatin. At the end of 16 weeks, the tissues were fixed with 10% formaldehyde and embedded in paraffin. […]

[4] = test system: Human Osteoblasts derived from alveolar bone; assay: MTT cytotoxicity and cell proliferation assay; format: cell-based; conditions: 5 μg/ml, 4 days, medium with 0.5% fetal bovine serum
Protocol: The cytotoxic effect and the effect on cell proliferation was assessed by means of the MTT colorimetric assay (tetrazolium) [3-(4,5-dimethylthazol-2-yl)-2,5-diphenyl tetrazoliumbromide], during 1, 2, 3 and 4 days. Human Osteoblasts derived from alveolar bone were planted at a density of 1×10^4 in plates of 96 wells. The cells were treated with the peptides (independently) for 4 days with concentrations of 1, 3 and 5 μg/ml of each of the peptides. The medium was replaced daily, and the peptides administered in the same way. The controls used were medium with fetal bovine serum at 10% (positive control) and medium with fetal bovine serum at 0.5% (negative control.) the peptides were administered at the various concentrations contained in the medium at 0.5%. At the end of each day of treatment, 10 μL of MTT (3-(4,5-dimethylthiazol-2-yl)-2,5-diphenyltetrazolium bromide) solution (5 mg/mL) was added to the wells and incubated for 3 hours. At the end the supernatant was removed and extraction was carried out by means of DMSO for 1 hour at 37° C. The optical density of the supernatant was read in a reader for ELISA at 570 nm. The optical density reflects the number of living cells present in the culture. […] The peptide […] (SEQ ID NO: 2) at a 5 μg/ml concentration promotes cell proliferation to a 92% with respect to the positive control (10% fetal bovine serum) (B).

[5] = biodistribution of peptide marked with pertechnetate (99mTc); format: in vivo, Wistar rats
Protocol: To determine the bio distribution of the peptides object of this invention, they were marked using technetium in the form of pertechnetate (TcO4−). In order to perform the marking, a working solution which contained: 40 ug of the peptides object of this invention, 50 ul of tartrate (2 mg/ml of acetate buffer pH5), 10 μl of SnCl2 (2 mg/ml 0.1 N HCl), 50 μl of gentisic acid (1 mg/ml) and 50 μl of 99m Tc—Na TCO4− (5 mCi) was prepared. Male Wistar rats of 250 g of weight which were at a temperature of 22° C. with a photoperiod of 12 hours and relative humidity at 50% were used. Food and water was ad libitum. To assess bio distribution, groups of three rats were formed and injected intraperitoneally with 40 μl of the marked peptide. They were sacrificed by an overdose of anesthetic at 30’, 1, 3, 6 and 24 hours. Blood samples from the heart, lung, liver, spleen, kidneys, stomach, small intestine, large intestine, muscle, bone, thyroid, brain and tooth were collected. These organs were weighed on an analytical balance and subsequently placed in a NaI(TI) solid scintillation counter to detect the activity of each one of the organs. With this procedure, the percentage of the injected dose per gram of tissue (% ID/g) was obtained.

[6] = test system: ovariectomized Wistar rats with osteoporosis; assay: histology of liver, kidney, heart, lung, brain, spleen, muscle after 90 days of peptide administration; format: in vivo, Wistar rats (Rattus norvegicus); conditions: 20-50 μg/kg i.p. for 90 days
Protocol: The control tissues in Panel (A) correspond to: normal tissues: L=liver, K=kidney, H=heart, Lu=lung, B=brain, M=muscle, S=spleen. Panel B) tissues of Wistar rats with osteoporosis treated with the pharmaceutical formulations object of this invention; L=liver, K=kidney, H=heart, Lu=lung, B=brain, S=Spleen M=muscle. […] This means that the synthetic peptides are harmless drugs for osteoporosis treatment, producing no adverse or secondary reactions at cellular or tissue level.

AVIFM
μCT three-dimensional reconstruction of 5th lumbar vertebra [1]: cancellous bone is present in almost the entire vertebral body | histology of femur epiphysis microarchitecture [1]: bone trabeculae forms a network structure similar to the microarchitecture of healthy control group; also recorded: full medullar spaces without evidence of osteoporotic spaces and with normal bone microarchitecture | histology of the body of the 5th lumbar vertebra [1]: cortical bone is observed similar to that of healthy Wistar rats | resistance to compression of 5th lumbar vertebra, difference compared to healthy control [2]: 2% | filling of the critical-size calvarial defect with bone [3]: 100% | cell proliferation with regard to the positive control (10% fetal bovine serum) [4]: 82%

MGTSSTDSQQAQHRRCSTSN
μCT three-dimensional reconstruction of 5th lumbar vertebra [1]: cancellous bone is present in almost the entire vertebral body | histology of femur epiphysis microarchitecture [1]: bone trabeculae forms a network structure similar to the microarchitecture of healthy control group; also recorded: full medullar spaces without evidence of osteoporotic spaces and with normal bone microarchitecture | histology of the body of the 5th lumbar vertebra [1]: cortical bone is observed similar to that of healthy Wistar rats | resistance to compression of 5th lumbar vertebra, difference compared to healthy control [2]: 19% | filling of the critical-size calvarial defect with bone [3]: 100% | percentage of injected dose per gram of tissue (% ID/g) ([5]; bone, 30′): 1.3% | percentage of injected dose per gram of tissue (% ID/g) ([5]; bone, 1 hour): 1.4% | percentage of injected dose per gram of tissue (% ID/g) ([5]; bone, 24 hours): 0.4% | percentage of injected dose per gram of tissue (% ID/g) ([5]; kidney, 1 hour): 1.6% | percentage of injected dose per gram of tissue (% ID/g) ([5]; kidney, 3 hours): 2.6% | percentage of injected dose per gram of tissue (% ID/g) ([5]; kidney, 6 hours): 1.3% | percentage of injected dose per gram of tissue (% ID/g) ([5]; kidney, 24 hours): 0.9% | percentage of injected dose per gram of tissue (% ID/g) ([5]; large intestine, 30′ after i.p. injection): 3.6% | percentage of injected dose per gram of tissue (% ID/g) ([5]; large intestine, 24 hours): 0.006% | percentage of injected dose per gram of tissue (% ID/g) ([5]; liver, 1 hour): 3.4% | percentage of injected dose per gram of tissue (% ID/g) ([5]; liver, 24 hours): 0.2% | cell proliferation with regard to the positive control (10% fetal bovine serum) [4]: 92% | histological alteration of liver, kidney, heart, lung, brain, spleen, muscle [6]: no histological feature that indicates that peptide administration in physiological saline solution causes microscopic alteration in these tissues
